Data published in ChEMBL document CHEMBL1143804, “Synthesis and antibacterial evaluation of 1beta-methyl-2-[5-(1-methoxyimino-2-substituted sulfonamide ethyl)pyrrolidin-3-ylthio]carbapenems and their related compounds” (2007).
≈ marks a conversion by molar mass, not a printed value.

Experiments:
[1] = system: Serratia marcescens; experiment: Antibacterial activity against Serratia marcescens 14273; type: functional
[2] = system: Streptococcus pyogenes; experiment: Antibacterial activity against Streptococcus pyogenes 308A; type: functional
[3] = system: Enterobacter cloacae; experiment: Antibacterial activity against Enterobacter cloacae; type: functional
[4] = system: Serratia marcescens; experiment: Antibacterial activity against Serratia marcescens 370; type: functional
[5] = system: Proteus mirabilis; experiment: Antibacterial activity against Proteus mirabilis 112/3; type: functional
[6] = system: Providencia rettgeri; experiment: Antibacterial activity against Proteus rettgeri 936; type: functional
[7] = system: Pseudomonas aeruginosa; experiment: Antibacterial activity against Pseudomonas aeruginosa 880/2; type: functional
[8] = system: Enterococcus durans; experiment: Antibacterial activity against Streptococcus durans D; type: functional
[9] = system: Salmonella typhimurium; experiment: Antibacterial activity against Salmonella Typhimurium; type: functional, Salmonella enterica subsp. enterica serovar Typhimurium; conditions: Salmonella enterica
[10] = system: Escherichia coli; experiment: Antibacterial activity against Escherichia coli 0114; type: functional
[11] = Antibacterial activity against Salmonella give; type: functional, Salmonella enterica subsp. enterica serovar Give; conditions: Salmonella enterica
[12] = system: Salmonella; experiment: Antibacterial activity against Salmonella orion; type: functional
[13] = system: Klebsiella aerogenes; experiment: Antibacterial activity against Klebsiella aerogenes 1522E; type: functional
[14] = system: Proteus vulgaris; experiment: Antibacterial activity against Proteus vulgaris 868; type: functional
[15] = Antibacterial activity against Salmonella oranienberg; type: functional, Salmonella enterica subsp. enterica serovar Oranienburg; conditions: Salmonella enterica
[16] = system: Priestia megaterium; experiment: Antibacterial activity against Bacillus megaterium; type: functional
[17] = system: Enterococcus faecium; experiment: Antibacterial activity against Streptococcus faecium 77A; type: functional
[18] = system: Proteus mirabilis; experiment: Antibacterial activity against Proteus mirabilis 174/3; type: functional
[19] = system: Streptococcus agalactiae; experiment: Antibacterial activity against Streptococcus agalactiae B; type: functional
[20] = system: Trueperella pyogenes; experiment: Antibacterial activity against Corynebacterium pyogenes; type: functional
[21] = system: Escherichia coli; experiment: Antibacterial activity against Escherichia coli 086; type: functional
[22] = system: Staphylococcus aureus; experiment: Antibacterial activity against Staphylococcus aureus SG511; type: functional
[23] = system: Micrococcus luteus; experiment: Antibacterial activity against Micrococcus luteus ATCC 9341; type: functional
[24] = system: Salmonella typhi; experiment: Antibacterial activity against Salmonella typhi; type: functional, Salmonella enterica subsp. enterica serovar Typhi; conditions: Salmonella enterica
[25] = system: Escherichia coli; experiment: Antibacterial activity against Escherichia coli TEM; type: functional
[26] = system: Salmonella paratyphi; experiment: Antibacterial activity against Salmonella paratyphi A; type: functional, Salmonella enterica subsp. enterica serovar Paratyphi A; conditions: Salmonella enterica
[27] = system: Corynebacterium diphtheriae; experiment: Antibacterial activity against Corynebacterium diphtheriae; type: functional
[28] = system: Staphylococcus aureus; experiment: Antibacterial activity against Staphylococcus aureus 285; type: functional
[29] = system: Pseudomonas aeruginosa; experiment: Antibacterial activity against Pseudomonas aeruginosa 110/2; type: functional
[30] = system: Klebsiella pneumoniae; experiment: Antibacterial activity against Klebsiella pneumonise 477; type: functional
[31] = system: Bacillus subtilis; experiment: Antibacterial activity against Bacillus subtilts ATCC 6633; type: functional
[32] = system: Enterobacter cloacae; experiment: Antibacterial activity against Enterobactor cloacae 1321E; type: functional
[33] = system: Escherichia coli; experiment: Antibacterial activity against Escherichia coli DC2; type: functional
[34] = system: Providencia rettgeri; experiment: Antibacterial activity against Proteus rettgeri 937; type: functional
[35] = system: Burkholderia cepacia; experiment: Antibacterial activity against Pseudomonas cepacia; type: functional
[36] = system: Streptococcus pyogenes; experiment: Antibacterial activity against Streptococcus pyogenes 77A; type: functional
[37] = system: Escherichia coli; experiment: Antibacterial activity against Escherichia coli 0126; type: functional
[38] = system: Escherichia coli; experiment: Antibacterial activity against Escherichia coil V6311/65; type: functional
[39] = system: Pasteurella multocida; experiment: Antibacterial activity against Pasteurella multocida; type: functional
[40] = system: Staphylococcus aureus; experiment: Antibacterial activity against Staphylococcus aureus 503; type: functional
[41] = system: Staphylococcus aureus; experiment: Antibacterial activity against Staphylococcus aureus 209P; type: functional
[42] = system: Enterobacter cloacae; experiment: Antibacterial activity against Enterobacter cloacae 417; type: functional
[43] = system: Staphylococcus aureus; experiment: Antibacterial activity against Staphylococcus aureus giorgio; type: functional
[44] = system: Escherichia coli; experiment: Antibacterial activity against Escherichia coil 1507; type: functional
[45] = system: Pseudomonas aeruginosa; experiment: Antibacterial activity against Pseudomonas aeruginosa 9027; type: functional
[46] = system: Serratia marcescens; experiment: Antibacterial activity against Serratia marcescens 6093; type: functional
[47] = system: Pseudomonas aeruginosa; experiment: Antibacterial activity against Pseudomonas aeruginosa 77/2; type: functional

With `CC(O)[C@H]1C(=O)N2C(C(=O)O)=C(SCCNC=N)C[C@H]12` (single isomer, unassigned) [IMIPENEM ANHYDROUS] the MIC [1] was 0.8 µg/mL (≈ 2.67 µM), the MIC [2] was < 0.01 µg/mL and the MIC [3] was 0.1 µg/mL (≈ 0.334 µM). For the same molecule, the MIC [4] was 0.2 µg/mL (≈ 0.668 µM), the MIC [5] was 0.2 µg/mL (≈ 0.668 µM) and the MIC [6] was 0.2 µg/mL (≈ 0.668 µM). It also gave an MIC [7] of 0.8 µg/mL (≈ 2.67 µM), an MIC [8] of 0.1 µg/mL (≈ 0.334 µM) and an MIC [9] of 0.781 µg/mL (≈ 2.61 µM). For the same molecule, the MIC [10] was 0.2 µg/mL (≈ 0.668 µM), the MIC [11] was 0.2 µg/mL (≈ 0.668 µM) and the MIC [12] was 0.2 µg/mL (≈ 0.668 µM). The MIC [13] was 0.098 µg/mL (≈ 0.327 µM), the MIC [14] was 0.1 µg/mL (≈ 0.334 µM) and the MIC [15] was 0.4 µg/mL (≈ 1.34 µM). For the same molecule, the MIC [16] was 0.03 µg/mL (≈ 0.1 µM), the MIC [17] was < 0.01 µg/mL and the MIC [18] was 0.1 µg/mL (≈ 0.334 µM). For the same molecule, the MIC [19] was 0.01 µg/mL (≈ 0.0334 µM), the MIC [20] was < 0.01 µg/mL and the MIC [21] was 0.2 µg/mL (≈ 0.668 µM). For the same molecule, the MIC [22] was 0.098 µg/mL (≈ 0.327 µM), the MIC [23] was 0.01 µg/mL (≈ 0.0334 µM) and the MIC [24] was 0.05 µg/mL (≈ 0.167 µM). It also gave an MIC [25] of 0.195 µg/mL (≈ 0.651 µM), an MIC [26] of 0.1 µg/mL (≈ 0.334 µM) and an MIC [27] of 0.01 µg/mL (≈ 0.0334 µM). For the same molecule, the MIC [28] was 0.013 µg/mL (≈ 0.0434 µM), the MIC [29] was 0.8 µg/mL (≈ 2.67 µM) and the MIC [30] was 0.2 µg/mL (≈ 0.668 µM). For the same molecule, the MIC [31] was 0.03 µg/mL (≈ 0.1 µM), the MIC [32] was 0.098 µg/mL (≈ 0.327 µM) and the MIC [33] was 0.391 µg/mL (≈ 1.31 µM). For the same molecule, the MIC [34] was 0.2 µg/mL (≈ 0.668 µM), the MIC [35] was 0.8 µg/mL (≈ 2.67 µM) and the MIC [36] was 0.013 µg/mL (≈ 0.0434 µM). For the same molecule, the MIC [37] was 0.1 µg/mL (≈ 0.334 µM), the MIC [38] was 0.05 µg/mL (≈ 0.167 µM) and the MIC [39] was < 0.01 µg/mL. The MIC [40] was < 0.01 µg/mL, the MIC [41] was 0.01 µg/mL (≈ 0.0334 µM) and the MIC [42] was 0.1 µg/mL (≈ 0.334 µM). For the same molecule, the MIC [43] was 0.01 µg/mL (≈ 0.0334 µM), the MIC [44] was 0.1 µg/mL (≈ 0.334 µM) and the MIC [45] was 0.781 µg/mL (≈ 2.61 µM). For the same molecule, the MIC [46] was 0.4 µg/mL (≈ 1.34 µM) and the MIC [47] was 0.8 µg/mL (≈ 2.67 µM).
